Reference: publication PMC12751012, “Nanoscale Direct-to-Biology Optimization and Structural Insights into Selective S. aureus TrmD Inhibitors” (Journal of Medicinal Chemistry, 2025)
Like-named read-outs stand apart in the source and are kept apart here.

Legend:
S. aureus TrmD [1] = molecular target: T1, S. aureus TrmD (Staphylococcus aureus, UniProt Q2FZ43); assay: Aptamer-based MTase enzyme inhibition assay; assay type: biochemical
T1 construct: made in house; host or cells: E. coli BL21
T1 sequence (Q2FZ43 1-245): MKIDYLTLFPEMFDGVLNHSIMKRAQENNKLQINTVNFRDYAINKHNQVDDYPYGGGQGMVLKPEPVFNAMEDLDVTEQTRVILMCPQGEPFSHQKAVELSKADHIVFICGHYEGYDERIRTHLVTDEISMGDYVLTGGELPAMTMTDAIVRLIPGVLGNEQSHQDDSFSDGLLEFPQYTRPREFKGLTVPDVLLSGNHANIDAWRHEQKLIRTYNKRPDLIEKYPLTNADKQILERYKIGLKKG
Description: For the determination of S. aureus TrmD IC50-values, a split aptamer assay according to Nidoieva et al. was employed. The assay was performed in 40 mM Tris HCl, 100 mM NaCl, 10 mM MgCl2, 5% Glycerol, pH 7.5. Enzyme reaction mixtures contained synthetic tRNA^LeuCAG substrate (synthetic tRNA^Leu: 5′-[…]-3′, Genscript, final concentration: 2 μM), S. aureus TrmD (final concentration: 100 nM), SAM (New England Biolabs, final concentration: 2 μM), and the test compounds in varying concentrations (3% DMSO, final volume 10 μL). Pure DMSO was used as a mock treatment reaction control. The assay was carried out in triplicate in black 384-well plates (Greiner). Enzyme reactions were quenched by the addition of 1 μL SDS (3%) after an incubation time of 60 min at room temperature.

S. aureus TrmD [2] = molecular target: T1, S. aureus TrmD; assay: nanoSAR direct-to-biology FP displacement screening of crude triazoles; assay type: binding; details: read-out: % displaced tracer
How it was run: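 S. aureus TrmD (500 nM) with tracer 4 (10 nM) in Tris/NaCl/MgCl2/glycerol buffer, pH 7.5, was challenged with unpurified triazoles from in situ CuAAC of alkyne 7 with a 320-member azide library.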

[3] = aptamer-based enzyme assay, read-out: IC50 S. aureus TrmD
[4] = crude triazole at 1 μM, assuming full conversion, 500 nM TrmD, 10 nM tracer 4

Structure (SMILES) | IC50 (S. aureus TrmD [1]; [3]) [nM] | inhibition at 1 µM (S. aureus TrmD [2]; [4]) [%] | IC50 (S. aureus TrmD [1]) [nM] | inhibition at 1 µM (S. aureus TrmD [2]) [%]
N#Cc1cccc(Cn2cc(-c3c[nH]c4nc[nH]c(=O)c34)nn2)c1 [Compound 8b, 3-((4-(4-Oxo-4,7-dihydro-3H-pyrrolo[2,3-d]pyrimidin-5-yl)-1H-1,2,3-triazol-1-yl)methyl)benzonitrile] | 3220 ± 1800 | 100 | – | –
N[C@@H]1CCC[C@@H]1Cn1cc(-c2c[nH]c3nc[nH]c(=O)c23)nn1 [Compound 8e, 5-(1-(((1R,2R)-2-Aminocyclopentyl)methyl)-1H-1,2,3-triazol-4-yl)-3,7-dihydro-4H-pyrrolo[2,3-d]pyrimidin-4-one] | 480 ± 60 | 93 | – | –
O=c1[nH]cnc2[nH]cc(-c3cn(Cc4ccc5ncccc5c4)nn3)c12 [Compound 8d, 5-(1-(Quinolin-6-ylmethyl)-1H-1,2,3-triazol-4-yl)-3,7-dihydro-4H-pyrrolo[2,3-d]pyrimidin-4-one] | 390 ± 70 | 98 | – | –
NC(N)=NCCn1cc(-c2c[nH]c3nc[nH]c(=O)c23)nn1 [Compound 8h] | – | – | 1160 ± 120 | 97
O=c1[nH]cnc2[nH]cc(-c3cn(CC4CCC5C(CC4)C5(F)F)nn3)c12 (stereo not shown) [Compound 8c, 5-(1-((8,8-Difluorobicyclo[5.1.0]octan-4-yl)methyl)-1H-1,2,3-triazol-4-yl)-3,7-dihydro-4H-pyrrolo[2,3-d]pyrimidin-4-one] | 710 ± 100 | 98 | – | –
